From US12522593B2, “Azacycloalkyl carbonyl cyclic amine compound” (Alivexis, Inc., priority 2022, dated 2026) come the findings set out here.

Test [1] addresses human recombinant CTSC (Homo sapiens (Human), UniProt P53634). The test can be described thus: CTSC inhibition assay (in vitro), fluorescent substrate GF-AFC. It counts as biochemical. The conditions noted are these: 30 μmol/L GF-AFC, pH 5.0, 25° C. Here is the method:
1. CTSC Inhibition Assay (In Vitro)
A test specimen was evaluated by a CTSC inhibition assay using a fluorescent substrate GF-AFC (Gly-Phe-7-Amino-4-trifluoromethylcoumarin, MP Biomedical, 03AFC03325). Since the GF-AFC is converted by CTSC to aminotrifluoromethylcoumarin having a specific fluorescence wavelength and the produced amount is proportional to CTSC activity, quantitative analysis was performed by measuring a fluorescence intensity with a plate reader. CTSC inhibition assay for each compound was performed using a polystyrene-made non-adhesive surface-treated black 384 well plate under the following conditions.
A human recombinant CTSC (R&D systems, 1071-CY) was dissolved in a CTSC active cocktail (20 ng/mL of human recombinant cathepsin L (R&D systems, 952-CY, 25 mmol/L MES/NaOH (pH: 6.0), 5 mmol/L dithiothreitol (DTT)) so as to be 100 ng/mL and incubated at 18° C. for 30 minutes. The solution was diluted with a CTSC assay buffer (50 mmol/L MES/NaOH (pH: 5.0), 50 mmol/L NaCl, 0.001% Triton X-100, mmol/L DTT) so as to be 2 ng/mL in a case of performing CTSC inhibition assay.
The test specimen was dissolved in dimethylsulfoxide (DMSO) at 10 mmol/L to prepare a stock solution. In a case where a solution in which the stock solution was diluted 15-fold with DMSO was used as the maximum evaluation concentration (0.667 mmol/L), 5-fold dilution was repeated in DMSO from the solution to prepare a serially diluted solution. 248.8 μL of the CTSC assay buffer was added to 1.12 μL of the serially diluted sample prepared in the DMSO to prepare a solution of a CTSC inhibition assay compound.
The final composition of the CTSC inhibition assay mixture was 0.66 ng/mL activated CTSC, 50 mmol/L MES/NaOH (pH: 5.0), 50 mmol/L NaCl, 0.001% Triton X-100, 5 mmol/L DTT, 30 μmol/L GF-AFC, and 0.15% DMSO, and the procedure was as follows. That is, 4 μL of the compound solution and 4 μL of the 2 ng/mL activated CTSC solution were mixed with each other in a 384 well plate and incubated at 25° C. for 30 minutes. Thereafter, 4 μL of the GF-AFC solution dissolved in the CTSC assay buffer was added to the mixture so as to be 90 μmol/L. After mixing to be uniform, a fluorescence emission intensity at 505 nm in a case of being excited at 390 nm after incubating at 25° C. for 1 hour was measured with a plate reader. A 4-parameter regression analysis was performed with GraphPad Prism (manufactured by GraphPad Software) from a plot of the fluorescence intensity at 505 nm and the sample concentration, and an IC50 value was calculated.
Results of test compounds of Formula (I) are shown in Table 1 as IC50 (nM) values for which 50% inhibition concentration is calculated based on CTSC inhibition (%). In the table, Ex indicates an example number.

For test [2], the target named is CTSC in U937 cells (Homo sapiens (Human), UniProt P53634). The test can be described thus: Intracellular CTSC inhibition assay (in vitro), LLOMe-induced cell death in U937 cells. In kind it is cell-based. Conditions: 3 hours culture, CellTiter-Glo. The protocol:
2. Intracellular CTSC Inhibition Assay (In Vitro)
A test specimen was evaluated by a degree of cell death in a case where a substrate LLOMe (L-Leucyl-L-Leucine methyl ester, hydrobromide salt, Sigma, 555045152) was added to U937 cells. The LLOMe is taken up into the cells by endocytosis and cleaved by CTSC. A product thereof induces lysosomal damage in cells and causes cell death in leukocytes and the like. Therefore, since the degree of cell death correlates with an amount of degradation of LLOMe, that is, with CTSC activity, by quantitatively analyzing the cell death, CTSC inhibitory activity of the test specimen in the cell was determined. CTSC inhibition assay was performed using a polystyrene-made white 384 well plate.
As the test specimen, a stock solution dissolved in DMSO was prepared so as to be 0.2 mmol/L, and in a case where a solution in which the stock solution was diluted 50-fold with a RPMI-1640 medium including 10% FBS was used as the maximum evaluation concentration (4000 nmol/L), a serially diluted solution was prepared by diluting the solution 3-fold with the medium. Thereafter, a 4-fold concentrated test specimen solution with the target final concentration was prepared.
U937 cells were cultured in a RPMI-1640 medium including 10% FBS, and diluted to prepare 90,000 cells/mL of cell suspension on the day of assay. 10 μL of the cell suspension was seeded per well. Next, 10 μL of the test specimen solution having a concentration 4 times the target final concentration was added thereto, and the mixture was allowed to stand for 30 minutes. Thereafter, 20 μL of a 300 μmol/L LLOMe solution dissolved in a RPMI-1640 medium including 10% FBS was added thereto, and the cells were cultured for 3 hours. After completion of the culture, 40 μL of CellTiter-Glo (registered trademark) reagent (Promega, G7570) was added to each well and mixed. After 15 minutes, 20 μL of the reaction solution in each well was transferred to a white 384 well plate, and a chemiluminescence intensity was measured with a plate reader. A 4-parameter regression analysis was performed with GraphPad Prism (manufactured by GraphPad Software) from a plot of the luminescence intensity and the sample concentration, and an IC50 value was calculated.
Results of test compounds of Formula (1) are shown in Table 2 as IC50 (nM) values for which 50% inhibition concentration is calculated based on CTSC inhibition (%). In the table, Ex indicates an example number.
For orientation: ATP-based viability assays read luminescence as a measure of living cells.

Chain of CTSC in U937 cells (P53634 25-463): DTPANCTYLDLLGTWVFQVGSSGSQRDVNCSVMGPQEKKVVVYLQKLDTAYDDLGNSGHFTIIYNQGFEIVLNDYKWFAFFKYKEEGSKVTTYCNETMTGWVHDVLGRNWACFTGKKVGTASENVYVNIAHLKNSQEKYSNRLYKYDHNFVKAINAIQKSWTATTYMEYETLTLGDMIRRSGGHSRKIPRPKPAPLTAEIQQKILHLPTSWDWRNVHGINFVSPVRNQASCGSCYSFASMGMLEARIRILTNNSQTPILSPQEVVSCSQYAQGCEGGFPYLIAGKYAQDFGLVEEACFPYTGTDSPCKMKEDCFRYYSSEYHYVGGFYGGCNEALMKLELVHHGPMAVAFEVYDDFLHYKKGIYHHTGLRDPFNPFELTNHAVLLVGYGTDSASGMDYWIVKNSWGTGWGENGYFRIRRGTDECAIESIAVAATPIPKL
Chain of human recombinant CTSC (P53634 25-134): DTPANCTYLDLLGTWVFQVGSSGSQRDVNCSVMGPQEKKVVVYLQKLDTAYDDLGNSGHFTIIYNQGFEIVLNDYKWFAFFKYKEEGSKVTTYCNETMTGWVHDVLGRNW
Chain of human recombinant CTSC (P53634 231-394): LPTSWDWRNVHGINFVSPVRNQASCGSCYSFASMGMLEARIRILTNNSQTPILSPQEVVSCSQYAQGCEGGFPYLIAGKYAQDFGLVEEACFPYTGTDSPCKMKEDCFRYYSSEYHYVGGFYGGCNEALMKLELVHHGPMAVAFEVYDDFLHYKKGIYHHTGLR
Chain of human recombinant CTSC (P53634 395-463): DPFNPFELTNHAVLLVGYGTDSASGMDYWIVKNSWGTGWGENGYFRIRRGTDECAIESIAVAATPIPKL

Consider `C[C@]1(F)C[C@H](c2nc(C3(C(F)(F)F)CCN(C(=O)[C@@H]4C[C@@H](O)C5(CCC5)CN4)CC3)no2)C1` [Example 49], for which the results for the IC50 in test [1] and in test [2] were 4.43 nM and 0.35 nM, respectively.

Regarding `O=C([C@@H]1C[C@@H](O)C2(CCC2)CN1)N1CCC(c2noc(C3CCC(F)(F)CO3)n2)(C(F)(F)F)CC1` (stereo partly drawn) [Example 50, (4-(5-(5,5-difluorotetrahydro-2H-pyran-2-yl)-1,2,4-oxadiazol-3-yl)-4-(trifluoromethyl)piperidin-1-yl)((7S,9R)-9-hydroxy-6-azaspiro[3.5]nonan-7-yl)methanone], the IC50 (as a rule, the point on the concentration scale where inhibition reaches its midpoint) in test [1] turned out to be 1.53 nM; in test [2], 0.8 nM.

Turning to `CC1(C)CN[C@H](C(=O)N2CCC(c3noc(C4CC(F)(F)C4)n3)(C(F)(F)F)CC2)C[C@H]1O` [Example 51, (4-(5-(3,3-Difluorocyclobutyl)-1,2,4-oxadiazol-3-yl)-4-(trifluoromethyl)piperidin-1-yl)((2S,4R)-4-hydroxy-5,5-dimethylpiperidin-2-yl)methanone], the IC50 in test [1] turned out to be 8.28 nM; in test [2] it was 0.86 nM.

On to `O=C([C@@H]1C[C@@H](O)C2(CCC2)CN1)N1CCC(C(=O)N2CC[C@@H](C(F)(F)F)C2)(C(F)(F)F)CC1` [Example 52], for which the results for the IC50 in test [1] and in test [2] were 8.16 nM and 10.2 nM, respectively.

For `CC1(C)CN(C(=O)c2nc(C3(C(F)(F)F)CCN(C(=O)[C@@H]4C[C@@H](O)C5(CCC5)CN4)CC3)no2)C1` [Example 53], the IC50 turned out to be 18.7 nM in test [1] and 11.3 nM in test [2].

For the molecule `CC(C)C1(c2nc(C3CC(F)(F)C3)no2)CCN(C(=O)[C@@H]2C[C@@H](O)C(C)(C)CN2)CC1` [Example 54], the IC50 in test [1] amounted to 3.88 nM; in test [2] it was 1.46 nM.

For the molecule `O=C([C@@H]1C[C@@H](O)C2(CCC2)CN1)N1CCC(C(=O)N2CC[C@H](C(F)(F)F)C2)(C(F)(F)F)CC1` [Example 55], the values for the IC50 in test [1] and in test [2] were 4.4 nM and 3.79 nM, respectively.

With `CC1(C)CN[C@H](C(=O)N2CCC(c3noc(C4CCC(F)(F)CC4)n3)(C(F)(F)F)CC2)C[C@H]1O` [Example 56, (4-(5-(4,4-Difluorocyclohexyl)-1,2,4-oxadiazol-3-yl)-4-(trifluoromethyl)piperidin-1-yl)((2S,4R)-4-hydroxy-5,5-dimethylpiperidin-2-yl)methanone], the results for the IC50 in test [1] and in test [2] were 2.06 nM and 0.71 nM, respectively.

Take `CC1(C)CN[C@H](C(=O)N2CCC(c3nc(C4CCC(F)(F)CC4)no3)(C(F)(F)F)CC2)C[C@H]1O` [Example 57]: the IC50 in test [1] came to 3.57 nM; in test [2], 0.55 nM.

Take `CC(C)C1(c2noc(C3CCC3)n2)CCN(C(=O)[C@@H]2C[C@@H](O)C3(CCC3)CN2)CC1` [Example 58]: the IC50 in test [1] stood at 2.55 nM; in test [2], 0.56 nM.

As for `O=C([C@@H]1C[C@@H](O)C2(CCC2)CN1)N1CCC(c2noc(C3CCCCO3)n2)(C(F)(F)F)CC1` (some centres unmarked) [Example 59], the IC50 in test [1] amounted to 3.61 nM; in test [2] it was 0.7 nM.

As for `O=C([C@@H]1C[C@@H](O)C2(CCC2)CN1)N1CCC(c2noc(C3CCCOC3)n2)(C(F)(F)F)CC1` (some centres unmarked) [Example 60], the IC50 in test [1] stood at 4.09 nM; in test [2], 1.39 nM.

Consider `O=C([C@@H]1C[C@@H](O)C2(CCC2)CN1)N1CCC(c2noc(C3CCOCC3)n2)(C(F)(F)F)CC1` [Example 61], for which the IC50 in test [1] was 5.72 nM; in test [2], 1.75 nM.

On to `O=C([C@@H]1C[C@@H](O)C2(CCC2)CN1)N1CCC(c2noc(C3CCCO3)n2)(C(F)(F)F)CC1` (some centres unmarked) [Example 62], for which the figures for the IC50 in test [1] and in test [2] were 6.39 nM and 1.62 nM, respectively.

Consider `O=C([C@@H]1C[C@@H](O)C2(CCC2)CN1)N1CCC(c2noc(C3CCC(F)(F)CO3)n2)(C(F)(F)F)CC1` (stereo partly drawn) [Example 63, (4-(5-(5,5-Difluorotetrahydro-2H-pyran-2-yl)-1,2,4-oxadiazol-3-yl)-4-(trifluoromethyl)piperidin-1-yl)((7S,9R)-9-hydroxy-6-azaspiro[3.5]nonan-7-yl)methanone], for which the results for the IC50 in test [1] and in test [2] were 1.85 nM and 1.01 nM, respectively.

As to `O=C([C@@H]1C[C@@H](O)C2(CCC2)CN1)N1CCC(c2noc(C3CCC(F)(F)CO3)n2)(C(F)(F)F)CC1` (stereo partly drawn) [Example 64, (4-(5-(5,5-Difluorotetrahydro-2H-pyran-2-yl)-1,2,4-oxadiazol-3-yl)-4-(trifluoromethyl)piperidin-1-yl)((7S,9R)-9-hydroxy-6-azaspiro[3.5]nonan-7-yl)methanone], the IC50 worked out at 0.69 nM in test [1] and 0.74 nM in test [2].

In the case of `O=C([C@@H]1C[C@@H](O)C2(CCC2)CN1)N1CCC(c2nc(C3CC(F)(F)C3)no2)(N2CCOCC2)CC1` [Example 65], the values for the IC50 in test [1] and in test [2] were 4.15 nM and 30.1 nM, respectively.

Turning to `O=C([C@@H]1C[C@@H](O)C2(CCC2)CN1)N1CCC(c2nnn(C3CCC(F)(F)CC3)n2)(C(F)(F)F)CC1` [Example 66], the IC50 in test [1] stood at 1.05 nM; in test [2], 0.46 nM.

As for `O=C([C@@H]1C[C@@H](O)C2(CCC2)CN1)N1CCC(c2nnn(C3CC(F)(F)C3)n2)(C(F)(F)F)CC1` [Example 67, (4-(2-(3,3-Difluorocyclobutyl)-2H-tetrazol-5-yl)-4-(trifluoromethyl)piperidin-1-yl)((7S,9R)-9-hydroxy-6-azaspiro[3.5]nonan-7-yl)methanone], the concentration for half-maximal inhibition (IC50) in test [1] amounted to 3.25 nM; in test [2], 1.41 nM.

On to `O=C([C@@H]1C[C@@H](O)C2(CCC2)CN1)N1CCC(c2noc(C3CC(F)(F)C3)n2)(c2nccs2)CC1` [Example 68], for which the IC50 was 2.92 nM in test [1] and 5.44 nM in test [2].

As for `O=C([C@@H]1C[C@@H](O)C2(CCC2)CN1)N1CCC(c2noc(C3CC(F)(F)C3)n2)(C2CC2)CC1` [Example 69], the IC50 is 1.73 nM in test [1] and 1.44 nM in test [2].

Turning to `O=C([C@@H]1C[C@@H](O)C2(CCC2)CN1)N1CCC(c2noc(C3CC(F)(F)C3)n2)(c2cccs2)CC1` [Example 70], the values for the IC50 in test [1] and in test [2] were 1.63 nM and 1.1 nM, respectively.

In the case of `Cc1cnn(C2(c3noc(C4CC(F)(F)C4)n3)CCN(C(=O)[C@@H]3C[C@@H](O)C4(CCC4)CN3)CC2)c1` [Example 71], the values for the IC50 in test [1] and in test [2] were 3.73 nM and 5.63 nM, respectively.

For `CC(C)C1(c2noc(C34CC(C3)C4)n2)CCN(C(=O)[C@@H]2C[C@@H](O)C3(CCC3)CN2)CC1` [Example 72], the IC50 in test [1] came to 2.48 nM; in test [2], 0.31 nM.

With `O=C([C@@H]1CC[C@@]2(CCO2)CN1)N1CCC(c2noc(C3CCC(F)(F)CC3)n2)(C(F)(F)F)CC1` [Example 73], the figures for the IC50 in test [1] and in test [2] were 3.28 nM and 4.05 nM, respectively.
